Data taken from ChEMBL document CHEMBL3885881, “DrugMatrix”.

Organism: Rattus norvegicus
Assay: DrugMatrix - Regimen: Daily Repeat
Assay type: toxicity, organism-based, Sprague-Dawley
Set-up: regimen Daily Repeat, gender Male, age 6-8 weeks
Conditions: in vivo, po, 90 mg/kg, route oral GAVAGE, dose level Low, vehicle 100 % WATER; for ALANINE AMINOTRANSFERASE / ALBUMIN / ALKALINE PHOSPHATASE / ASPARTATE AMINOTRANSFERASE / BLOOD UREA NITROGEN / CARBON DIOXIDE / CHLORIDE / CHOLESTEROL / CREATINE PHOSPHOKINASE / CREATININE / LACTATE DEHYDROGENASE / LIPASE / PHOSPHORUS / POTASSIUM / SODIUM / TOTAL BILIRUBIN / TOTAL PROTEIN / URIC ACID: tissue Plasma
[1] = 120 h, tissue Blood, time 5 day

CC(NC(C)(C)C)C(=O)c1cccc(Cl)c1 (stereo not drawn) [BUPROPION]
ABSOLUTE BASOPHIL (72 h, tissue Blood, time 3 day): 0 CELLS/uL
ABSOLUTE EOSINOPHIL (72 h, tissue Blood, time 3 day): 0 CELLS/uL
ABSOLUTE LYMPHOCYTE (72 h, tissue Blood, time 3 day): 10359.67 CELLS/uL
ABSOLUTE MONOCYTE (72 h, tissue Blood, time 3 day): 103.67 CELLS/uL
ABSOLUTE SEGMENTED NEUTROPHIL (72 h, tissue Blood, time 3 day): 603.33 CELLS/uL
BASOPHIL (72 h, tissue Blood, time 3 day): 0%
EOSINOPHIL (72 h, tissue Blood, time 3 day): 0%
ERYTHROCYTE COUNT (72 h, tissue Blood, time 3 day): 5.5 x10E6/uL
HEMATOCRIT (72 h, tissue Blood, time 3 day): 35.63%
HEMOGLOBIN (72 h, tissue Blood, time 3 day): 13.4 G/DL
LEUKOCYTE COUNT (72 h, tissue Blood, time 3 day): 11.07 x10E3/uL
LYMPHOCYTE (72 h, tissue Blood, time 3 day): 93.67%
MEAN CORPUSCULAR HEMOGLOBIN (72 h, tissue Blood, time 3 day): 24.4 pg
MEAN CORPUSCULAR HEMOGLOBIN CONCENTRATION (72 h, tissue Blood, time 3 day): 37.63 G/DL
MEAN CORPUSCULAR VOLUME (72 h, tissue Blood, time 3 day): 64.83 fL
MONOCYTE (72 h, tissue Blood, time 3 day): 1%
NEUTROPHIL (72 h, tissue Blood, time 3 day): 5.33%
NUCLEATED RED BLOOD CELLS (72 h, tissue Blood, time 3 day): 0 /100WBC
PLATELET COUNT (72 h, tissue Blood, time 3 day): 1176 x10E3/uL
ALANINE AMINOTRANSFERASE (72 h, time 3 day): 40 u/L
ALBUMIN (72 h, time 3 day): 4.5 G/DL
ALKALINE PHOSPHATASE (72 h, time 3 day): 417.67 u/L
ASPARTATE AMINOTRANSFERASE (72 h, time 3 day): 84.67 u/L
BLOOD UREA NITROGEN (72 h, time 3 day): 16.33 mg/dL
CARBON DIOXIDE (72 h, time 3 day): 31 mmol/L
CHLORIDE (72 h, time 3 day): 99.33 MEQ/L
CHOLESTEROL (72 h, time 3 day): 95 mg/dL
CREATINE PHOSPHOKINASE (72 h, time 3 day): 325 u/L
CREATININE (72 h, time 3 day): 0.19 mg/dL
LACTATE DEHYDROGENASE (72 h, time 3 day): 154.67 u/L
LIPASE (72 h, time 3 day): 9 u/L
PHOSPHORUS (72 h, time 3 day): 10.93 mg/dL
POTASSIUM (72 h, time 3 day): 6.49 MEQ/L
SODIUM (72 h, time 3 day): 143.13 MEQ/L
TOTAL BILIRUBIN (72 h, time 3 day): 0.17 mg/dL
TOTAL PROTEIN (72 h, time 3 day): 6.53 G/DL
URIC ACID (72 h, time 3 day): 0.73 mg/dL
ABSOLUTE BASOPHIL [1]: 0 CELLS/uL
ABSOLUTE EOSINOPHIL [1]: 55.33 CELLS/uL
ABSOLUTE LYMPHOCYTE [1]: 14977 CELLS/uL
ABSOLUTE MONOCYTE [1]: 411.67 CELLS/uL
ABSOLUTE SEGMENTED NEUTROPHIL [1]: 2222.67 CELLS/uL
BASOPHIL [1]: 0%
EOSINOPHIL [1]: 0.33%
ERYTHROCYTE COUNT [1]: 5.73 x10E6/uL
HEMATOCRIT [1]: 37.5%
LEUKOCYTE COUNT [1]: 17.67 x10E3/uL
LYMPHOCYTE [1]: 86.67%
MEAN CORPUSCULAR HEMOGLOBIN [1]: 24.83 pg
MEAN CORPUSCULAR HEMOGLOBIN CONCENTRATION [1]: 37.83 G/DL
MEAN CORPUSCULAR VOLUME [1]: 65.57 fL
MONOCYTE [1]: 2%
NEUTROPHIL [1]: 11%
NUCLEATED RED BLOOD CELLS [1]: 0 /100WBC
PLATELET COUNT [1]: 1410.67 x10E3/uL
ALANINE AMINOTRANSFERASE (120 h, time 5 day): 37.67 u/L
ALBUMIN (120 h, time 5 day): 4.67 G/DL
ALKALINE PHOSPHATASE (120 h, time 5 day): 328 u/L
ASPARTATE AMINOTRANSFERASE (120 h, time 5 day): 72 u/L
BLOOD UREA NITROGEN (120 h, time 5 day): 17.33 mg/dL
CARBON DIOXIDE (120 h, time 5 day): 32.33 mmol/L
CHLORIDE (120 h, time 5 day): 100 MEQ/L
CHOLESTEROL (120 h, time 5 day): 93.67 mg/dL
CREATINE PHOSPHOKINASE (120 h, time 5 day): 263 u/L
CREATININE (120 h, time 5 day): 0.21 mg/dL
LACTATE DEHYDROGENASE (120 h, time 5 day): 145 u/L
LIPASE (120 h, time 5 day): 9.33 u/L
PHOSPHORUS (120 h, time 5 day): 12.6 mg/dL
POTASSIUM (120 h, time 5 day): 8.49 MEQ/L
SODIUM (120 h, time 5 day): 144.5 MEQ/L
TOTAL BILIRUBIN (120 h, time 5 day): 0.23 mg/dL
TOTAL PROTEIN (120 h, time 5 day): 6.77 G/DL
URIC ACID (120 h, time 5 day): 1.6 mg/dL
